{"source": "patent US4720497A", "about": "“6-purinyl N-/2-chloroethyl/carbamate and thiocarbamate and process for the preparation thereof” (SPOFA, Spojene Podniky pro Zdravotnickou Vyrobu, priority 1984, dated 1988)", "key": {"Yoshida tumor [1]": {"tested_on": "Yoshida tumor", "assay": "Survival of rats with implanted Yoshida tumor (Example 6)", "assay_type": "in vivo, female Wistar rats", "conditions": "Wistar rats", "source_text": "(§1) The antineoplastic activity of the compounds of the invention has been investigated by testing the compounds of the chemical group \"in vivo\" against experimental rodent tumors such as Crocker's sarcoma (S180), solid-type Ehrlich carcinoma (STE), kreb's ascites tumor (Kr2), all maintained in mice H, Gardner lymphosarcoma (LsG, C3H mice), P388 and L1210 leukemias (DBA2 mice), Zajdela ascites hapatoma (ZAH, Wistar rats), Yoshida ascites reticulosarcoma (Y, Wistar rats) and B16 melanoma (C57B16 mice) in experiments according to Jelinek, V. (Neoplasma 12, 469 (1969); ibid. 7, 146 (1960) and \"in vitro\" experiments using radioactive precursors of nucleic acids and proteins according to Miko, M. et al. (Cancer Res. 39, 4242 (1979); Neoplasma 26, 449 (1979); ibid. 16, 161--1969) with minor modifications (Mattern J.: Studies on the Drug Sensitivity of Short Term Cultured Tumor Cell Suspensions. In \"Human Tumors in Short Term Culture\" (Dendy, P. P. ed.), p. 301, Academic Press 1976). Therapeutic synergism has been studied by the method of Carter, W. H. et al. (cf. Cancer Res. 42, 2963--1982).\n(§2) Additionally, the compounds of the present invention are useful in increasing survival time of the suitable biological subjects, namely mice and rats bearing tumors STE, ZAH and/or Y: because of the lethal nature of the test system employed, the antitumor effect of the compounds is illustrated by a side comparison of the survival time of treated animals (survival for a longer time) with the untreated control groups of animals (cf. Examples 5, 6, and 7). In these typical experiments, ten animals are in the experimental groups, and the treated groups of animals survive for a longer time than the untreated controls.\n(§3) Fifty infantile female Wistar rats weighing approximately 60 g are divided into five groups: one control and four experimental ones, 10 animals each. A lethal dose of the tumor ascites from Zajdel ascitic hepatoma is implanted intraperitoneally in all the animals. The experimental groups are treated with the substance Ia in water suspension. The suspension contains the substance Ia in such an amount that a dose of 0.4 or 0.2 ml of the suspension p.o. is equal to a dose of 200 or 100 mg Ia/Kg. This dose is applied to the experimental animals once a day, five times altogether, starting on the first day after the implantation."}, "Yoshida tumor [2]": {"tested_on": "Yoshida tumor", "assay": "Survival of rats with implanted Yoshida tumor (Example 7)", "assay_type": "in vivo, female Wistar rats", "conditions": "Wistar rats", "source_text": "as §1, §2, §3"}, "Zajdel ascitic hepatoma": {"tested_on": "Zajdel ascitic hepatoma", "assay": "Survival of rats with implanted Zajdel ascitic hepatoma, comparison with 6-mercaptopurine (Example 8)", "assay_type": "in vivo, female Wistar rats", "conditions": "for Period of survival (% of control): Wistar rats", "source_text": "as §1, §3"}, "[3]": {"tested_on": "Yoshida ascitic tumor cells", "assay": "Cytotoxicity in vitro: initial velocity of 3H/14C precursor incorporation in Yoshida ascitic tumor cells (Example 11)", "assay_type": "cell-based", "conditions": "Rattus norvegicus, YOSHIDA", "source_text": "as §1\n(§4) In analogous experiments, the degree of influence on the initial velocity of the incorporation of ^3 H from 5-iodo-2'-deoxy-(6-^3 H)uridine or that of ^14 C from a mixture of L-(U-^14 C)-aminoacids to the fraction of Yoshida ascitic tumor cells insoluble in trichloroacetic acid serves as the measure of cytotoxicity. The value IC50 is the concentration of a substance that reduces the initial velocity of the ^3 H or ^14 C incorporation down to 50% of the noninfluenced control cells."}, "Ehrlich tumor (STE)": {"tested_on": "Ehrlich tumor (STE)", "assay": "Antitumor activity against implanted Ehrlich tumor (STE) in mice, tumor weight (Example 4)", "assay_type": "in vivo, female mice H", "conditions": "mice H", "source_text": "as §1\nSixty female mice H weighing approximately 20 g are divided into three groups: one control group and two experimental groups of 20 animals each. A lethal dose of the Crocker tumor (S180) homogenate is implanted subcutaneously in all the animals. The experimental groups are treated with the substance Ia in water suspension. The suspension contains the substance Ia in such an amount that a dose 0.4 or 0.2 ml of the suspension p.o. is equal to a dose 200 or 100 mg Ia/kg. This dose is administered to the experimental animals once a day, eight times altogether, starting on the fifth day after the implantation. On the fourteenth day after the implantation, a half of the animals in each group is sacrificed in ether anaesthesia, and tumors are removed and weighed. The remaining animals are left to monitor the time of death."}, "tumor cells": {"tested_on": "tumor cells", "assay": "Comparison of cytotoxicity of Ia and Ib in vitro, precursor incorporation (Example 12)", "assay_type": "cell-based", "source_text": "as §1, §4\nIn analogous experiments, the following values of IC50 were determined: […]"}, "Ehrlich Carcinoma cells": {"tested_on": "Ehrlich Carcinoma cells", "assay": "Cytotoxicity in vitro: 14C precursor incorporation in Ehrlich Carcinoma cells (Example 10)", "assay_type": "cell-based", "conditions": "Ehrlich, read-out: ID50 (14C incorporation)", "source_text": "as §1\nThe degree of influence on the incorporation of ^14 C from adenine-^14 C and valine-^14 C to the fraction of Ehrlich Carcinoma cells insoluble in trichloroacetic acid serves as the measure of cytotoxicity. The value ID50 is the concentration of a cytostatic that reduces the ^14 C incorporation down to 50% of the non-influencedcontrol cells."}, "Yoshida ascitic sarcoma": {"tested_on": "Yoshida ascitic sarcoma", "assay": "Therapeutic synergism with Benfluron, survival of rats with Yoshida ascitic sarcoma (Example 9)", "assay_type": "in vivo, female Wistar rats", "conditions": "for Average period of survival (days): geometric average (fiducial limits P=0.95)", "source_text": "as §1\nOne hundred and twenty seven infantile female Wistar rats weighing 50-60 g are divided into sixteen groups: one control group of 25 animals and fifteen experimental groups of 6 to 7 animals. A lethal dose of the tumor ascites from Yoshida ascitic sarcoma is implanted intraperitoneally in all the animals. The experimental groups are treated with the substance Ia in water suspension, water solution of a cytostatic Benfluron (CAS 80427-58-3), or a combination of both the substances. The suspension or solution contains the substances in such a concentration that doses of 0.4 or 0.2 and 0.1 ml of the suspension/solution p.o. are equal to doses of 200 or 100 and 50 mg Ia/kg or to doses of 160, 80 or 40 mg of Benfluron/kg. Doses of the substance Ia are administered to the experimental animals once a day, four times altogether, starting on the first day after the tumor implantation. Benfluron is administered only once, on the fourth day after the tumor implantation, 7 hours after the last dose of the substance Ia."}, "[4]": {"conditions": "literature; cited from earlier work"}}, "note": "Entries after “also recorded” stand apart in the source; their conditions may differ. Read-outs that look alike come from different tables or passages of the source."}
{"molecule": "Sc1ncnc2nc[nH]c12", "note": "[6-mercaptopurine, reference compound]", "values": [{"measurement": "Period of survival (% of control)", "setting": "Yoshida tumor [1]; p.o. 5 × 20 mg/kg (Example 6)", "result": "109 % of control"}, {"measurement": "Period of survival (% of control)", "setting": "Yoshida tumor [1]; p.o. 5 × 40 mg/kg (Example 6)", "result": "127 % of control"}, {"measurement": "Period of survival (% of control)", "setting": "Yoshida tumor [2]; p.o. 5 × 20 mg/kg (Example 7)", "result": "107 % of control"}, {"measurement": "Period of survival (% of control)", "setting": "Yoshida tumor [2]; p.o. 5 × 40 mg/kg (Example 7)", "result": "156 % of control"}, {"measurement": "Period of survival (% of control)", "setting": "Zajdel ascitic hepatoma; p.o. 5 × 20 mg/kg (Example 8)", "result": "101 % of control"}, {"measurement": "Period of survival (% of control)", "setting": "Zajdel ascitic hepatoma; p.o. 5 × 40 mg/kg (Example 8)", "result": "105 % of control"}, {"measurement": "antitumor effect / average period of survival vs non-treated control", "setting": "Zajdel ascitic hepatoma; in words (Example 8)", "result": "ineffective; also recorded: inactive"}, {"measurement": "IC50", "setting": "[3]; precursor 5-iodo-2'-deoxy(6-3H)uridine, read-out: IC50 (initial velocity of 3H incorporation)", "result": "> 10", "unit": "mM"}, {"measurement": "IC50", "setting": "[3]; precursor L-(U-14C)aminoacids, read-out: IC50 (initial velocity of 14C incorporation)", "result": "> 0.229", "unit": "mM"}]}
{"molecule": "O=C(NCCCl)Oc1ncnc2nc[nH]c12", "note": "[Substance Ib, 6-[N-(2-Chloroethyl)carbamoyl]oxypurine]", "values": [{"measurement": "Tumor weight (% of control)", "setting": "Ehrlich tumor (STE); p.o. 8 × 100 mg/kg", "result": "76 % of control"}, {"measurement": "Tumor weight (% of control)", "setting": "Ehrlich tumor (STE); p.o. 8 × 200 mg/kg", "result": "81 % of control"}, {"measurement": "Period of survival (% of control)", "setting": "Yoshida tumor [1]; p.o. 5 × 100 mg/kg (Example 6)", "result": "100 % of control"}, {"measurement": "Period of survival (% of control)", "setting": "Yoshida tumor [1]; p.o. 5 × 200 mg/kg (Example 6)", "result": "83 % of control"}, {"measurement": "IC50", "setting": "tumor cells; precursor 5-iodo-2'-deoxy(6-3H)uridine (Example 12)", "result": 55, "unit": "µM"}, {"measurement": "IC50", "setting": "tumor cells; precursor L-(U-14C)aminoacids (Example 12)", "result": 80, "unit": "µM"}]}
{"molecule": "Nc1nc(S)c2[nH]cnc2n1", "note": "[2-amino-6-mercaptopurine, 2-Amino-6-mercaptopurine, reference compound]", "values": [{"measurement": "IC50", "setting": "Ehrlich Carcinoma cells; precursor adenine-14C", "result": "> 600", "unit": "µM"}, {"measurement": "IC50", "setting": "Ehrlich Carcinoma cells; precursor valine-14C", "result": "> 600", "unit": "µM"}]}
{"molecule": "CN(C)CCOc1cc2c(c3ccccc13)-c1ccccc1C2=O.Cl", "note": "[Benfluron, 5-[2-(N, N-Dimethylamino)ethoxy]-7-oxo-7H-benzo(c)fluorene hydrochloride, reference compound]", "values": [{"measurement": "Average period of survival (% of control)", "setting": "Yoshida ascitic sarcoma; Benfluron 40 mg/kg p.o. once", "result": "104 % of control"}, {"measurement": "Average period of survival (days)", "setting": "Yoshida ascitic sarcoma; Benfluron 40 mg/kg p.o. once", "result": "7.67 (6.9; 8.6) days"}, {"measurement": "Average period of survival (% of control)", "setting": "Yoshida ascitic sarcoma; Benfluron 80 mg/kg p.o. once", "result": "104 % of control"}, {"measurement": "Average period of survival (days)", "setting": "Yoshida ascitic sarcoma; Benfluron 80 mg/kg p.o. once", "result": "7.61 (6.5; 8.9) days"}, {"measurement": "Average period of survival (% of control)", "setting": "Yoshida ascitic sarcoma; Benfluron 160 mg/kg p.o. once", "result": "106 % of control"}, {"measurement": "Average period of survival (days)", "setting": "Yoshida ascitic sarcoma; Benfluron 160 mg/kg p.o. once", "result": "7.79 (6.9; 8.8) days"}]}
{"molecule": "Nc1ncnc2c1ncn2C(=O)NCCCl", "note": "[N-(2-chloroethyl)-6-aminopurine-9-carboxamide]", "values": [{"measurement": "biological activity", "setting": "[4]", "result": "did not exhibit any biological activity"}]}
{"molecule": "CCN(CC)C(=O)Nc1ncnc2nc[nH]c12", "note": "[N-(6-purinyl)-N', N'-diethylurea]", "values": [{"measurement": "antineoplastic action", "setting": "[4]", "result": "weak antineoplastic action"}]}
